# Structures can show the parent of a compound that is named as a salt. Where two headings read alike, the source gives them in different places.
# Test system: inflamed rat hind paw
# Assay: Randall-Selitto test in rats (carrageenan-induced acute inflammation, mechanical nociceptive threshold)
# Conditions: for ED50: Rattus norvegicus, 0.25 h, read-out: ED50 (substance applied alone); for analgesic effect: i.p.; for analgesic effect / timepoint of peak effect: substance applied alone; for timepoint of peak effect: p. appl., timepoint of first measurement
SMILES,ED50 (ip),analgesic effect,timepoint of peak effect,ED50 (iv)
"CNC1(c2ccccc2Cl)CCCCC1=O (racemic) [ketamine hydrochloride, (R,S)-ketamine hydrochloride]",20.2 mg/kg,dose-dependent analgesic effect,15 min,–
CC12CC3CC(C)(C1)CC(N)(C3)C2 [memantine hydrochloride],19.1 mg/kg,dose-dependent analgesic effect,15 min,–
CC[C@@H](c1cccc(O)c1)[C@@H](C)CN(C)C [tapentadol hydrochloride],–,–,15 min,1.75 mg/kg

# Reference: patent publication US10813890B2, “Pharmaceutical combination” (Gruenenthal GmbH, priority 2010, dated 2020)
